According to US20230150970A1, “AMINOPYRIMIDINE DERIVATIVES AND THEIR USE AS ARYL HYDROCARBON RECEPTOR MODULATORS” (DONG-A ST CO., LTD., priority 2020, published 2023):

The compounds below were run against T1, AhR (Homo sapiens, UniProt P35869) (assay: In Vitro Assay 1: XRE-luciferase reporter assay, antagonism in human cell line (HepG2)). Conditions: Assay 1: AhR-Luc Human Antagonism (IC50, nM), values marked *: kynurenine 50 μM, 6 hours.
T1 sequence (P35869 11-848): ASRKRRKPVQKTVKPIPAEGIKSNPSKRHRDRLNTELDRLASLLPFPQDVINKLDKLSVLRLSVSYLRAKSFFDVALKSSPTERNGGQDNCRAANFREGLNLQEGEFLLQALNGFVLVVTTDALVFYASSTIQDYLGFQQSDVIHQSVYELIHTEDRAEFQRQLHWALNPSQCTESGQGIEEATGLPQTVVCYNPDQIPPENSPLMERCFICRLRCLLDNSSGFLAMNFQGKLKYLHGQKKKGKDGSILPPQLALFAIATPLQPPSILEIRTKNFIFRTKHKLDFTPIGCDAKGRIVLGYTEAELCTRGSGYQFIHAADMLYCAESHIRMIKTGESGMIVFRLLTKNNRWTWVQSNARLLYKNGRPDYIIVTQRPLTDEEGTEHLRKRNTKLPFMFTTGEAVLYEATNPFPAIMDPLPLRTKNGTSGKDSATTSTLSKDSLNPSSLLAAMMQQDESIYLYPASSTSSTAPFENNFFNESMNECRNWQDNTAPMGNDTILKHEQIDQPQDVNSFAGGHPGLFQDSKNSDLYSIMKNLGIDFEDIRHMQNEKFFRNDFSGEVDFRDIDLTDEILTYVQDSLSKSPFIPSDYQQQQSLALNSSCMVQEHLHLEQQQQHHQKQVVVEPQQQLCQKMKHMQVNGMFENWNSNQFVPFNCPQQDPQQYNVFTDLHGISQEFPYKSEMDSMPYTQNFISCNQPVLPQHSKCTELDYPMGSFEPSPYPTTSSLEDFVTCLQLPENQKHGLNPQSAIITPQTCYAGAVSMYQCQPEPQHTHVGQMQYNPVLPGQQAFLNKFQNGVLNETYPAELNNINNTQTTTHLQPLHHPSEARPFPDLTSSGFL

SMILES | IC50
CNC1CCN(c2cc(-c3ccc(Cl)cc3)nc(-c3cccnc3)n2)C1 (centres unmarked) [Example 141, 1-(6-(4-chlorophenyl)-2-(pyridin-3-yl)pyrimidin-4-yl)-N-methylpyrrolidin-3-amine] | > 1000 nM
COC(=O)[C@@H]1CCCN1c1cc(-c2ccc(Cl)cc2)nc(-c2cccnc2)n1 [Example 142, methyl (6-(4-chlorophenyl)-2-(pyridin-3-yl)pyrimidin-4-yl)prolinate] | 100 to 1000 nM
CC(O)C(C)Nc1cc(-c2ccc(Cl)cc2)nc(-c2cccnc2)n1 (centres unmarked) [Example 145, 3-((6-(4-chlorophenyl)-2-(pyridin-3-yl)pyrimidin-4-yl)amino)butan-2-ol] | 100 to 1000 nM
OC[C@@H]1CCCN(c2cc(-c3ccc(Cl)cc3)nc(-c3cccnc3)n2)C1 [Example 147, (R)-(1-(6-(4-chlorophenyl)-2-(pyridin-3-yl)pyrimidin-4-yl)piperidin-3-yl)methanol] | < 10 nM
OC[C@H]1CCCN(c2cc(-c3ccc(Cl)cc3)nc(-c3cccnc3)n2)C1 [Example 148, (S)-(1-(6-(4-chlorophenyl)-2-(pyridin-3-yl)pyrimidin-4-yl)piperidin-3-yl)methanol] | 10 to 100 nM
Clc1ccc(-c2cc(NCCN3CCCCC3)nc(-c3cccnc3)n2)cc1 [Example 149, 6-(4-chlorophenyl)-N-(2-(piperidin-1-yl)ethyl)-2-(pyridin-3-yl)pyrimidin-4-amine] | > 1000 nM
N#CC1CCN(c2cc(-c3ccc(Cl)cc3)nc(-c3cccnc3)n2)CC1 [Example 150, 1-(6-(4-chlorophenyl)-2-(pyridin-3-yl)pyrimidin-4-yl)piperidine-4-carbonitrile] | < 10 nM
OC1(c2cccc(C(F)(F)F)c2)CCN(c2cc(-c3ccc(Cl)cc3)nc(-c3cccnc3)n2)CC1 [Example 151, 1-(6-(4-chlorophenyl)-2-(pyridin-3-yl)pyrimidin-4-yl)-4-(3-(trifluoromethyl)phenyl)piperidin-4-ol] | > 1000 nM
Clc1ccc(-c2cc(N3CCC(N4CCCC4)CC3)nc(-c3cccnc3)n2)cc1 [Example 152, 4-(4-chlorophenyl)-2-(pyridin-3-yl)-6-(4-(pyrrolidin-1-yl)piperidin-1-yl)pyrimidine] | 100 to 1000 nM
OC1(c2ccc(Cl)cc2)CCN(c2cc(-c3ccc(Cl)cc3)nc(-c3cccnc3)n2)CC1 [Example 153, 4-(4-chlorophenyl)-1-(6-(4-chlorophenyl)-2-(pyridin-3-yl)pyrimidin-4-yl)piperidin-4-ol] | > 1000 nM
CC(=O)C1(c2ccccc2)CCN(c2cc(-c3ccc(Cl)cc3)nc(-c3cccnc3)n2)CC1 [Example 155, 1-(1-(6-(4-chlorophenyl)-2-(pyridin-3-yl)pyrimidin-4-yl)-4-phenylpiperidin-4-yl)ethan-1-one] | > 1000 nM
Clc1ccc(-c2cc(N3CCC(N4CCOCC4)CC3)nc(-c3cccnc3)n2)cc1 [Example 156, 4-(1-(6-(4-chlorophenyl)-2-(pyridin-3-yl)pyrimidin-4-yl)piperidin-4-yl)morpholine] | < 10 nM
Clc1ccc(-c2cc(N3CCC(c4cc(Cl)cc(Cl)c4)CC3)nc(-c3cccnc3)n2)cc1 [Example 157, 4-(4-chlorophenyl)-6-(4-(3,5-dichlorophenyl)piperidin-1-yl)-2-(pyridin-3-yl)pyrimidine] | > 1000 nM
Clc1ccc(-c2cc(NCC3CCCN(C4CCCCC4)C3)nc(-c3cccnc3)n2)cc1 (centres unmarked) [Example 158, 6-(4-chlorophenyl)-N-((1-cyclohexylpiperidin-3-yl)methyl)-2-(pyridin-3-yl)pyrimidin-4-amine] | 100 to 1000 nM
Clc1ccc(-c2cc(NCC3CCN(Cc4ccccc4)CC3)nc(-c3cccnc3)n2)cc1 [Example 159, N-((1-benzylpiperidin-4-yl)methyl)-6-(4-chlorophenyl)-2-(pyridin-3-yl)pyrimidin-4-amine] | 100 to 1000 nM
CCOC(=O)CC(=O)C1CCN(c2cc(-c3ccc(Cl)cc3)nc(-c3cccnc3)n2)CC1 [Example 160, ethyl 3-(1-(6-(4-chlorophenyl)-2-(pyridin-3-yl)pyrimidin-4-yl)piperidin-4-yl)-3-oxopropanoate] | > 1000 nM
CCOC(=O)CC1CCN(c2cc(-c3ccc(Cl)cc3)nc(-c3cccnc3)n2)CC1 [Example 161, ethyl 2-(1-(6-(4-chlorophenyl)-2-(pyridin-3-yl)pyrimidin-4-yl)piperidin-4-yl)acetate] | > 1000 nM
O[C@H]1CCCN(c2cc(-c3ccc(Cl)cc3)nc(-c3cccnc3)n2)C1 [Example 163, (S)-1-(6-(4-chlorophenyl)-2-(pyridin-3-yl)pyrimidin-4-yl)piperidin-3-ol] | 10 to 100 nM
CN(C)C1CCN(c2cc(-c3ccc(Cl)cc3)nc(-c3cccnc3)n2)C1 (centres unmarked) [Example 164, 1-(6-(4-chlorophenyl)-2-(pyridin-3-yl)pyrimidin-4-yl)-N,N-dimethylpyrrolidin-3-amine] | 100 to 1000 nM
CN(C)CCC1CCCN1c1cc(-c2ccc(Cl)cc2)nc(-c2cccnc2)n1 (centres unmarked) [Example 165, 2-(1-(6-(4-chlorophenyl)-2-(pyridin-3-yl)pyrimidin-4-yl)pyrrolidin-2-yl)-N,N-dimethylethan-1-amine] | > 1000 nM

Now from value to compound:

IC50 | SMILES
10 to 100 nM | O=C1CCN(c2cc(-c3ccc(Cl)cc3)nc(-c3cccnc3)n2)CC1 [Example 166, 1-(6-(4-chlorophenyl)-2-(pyridin-3-yl)pyrimidin-4-yl)piperidin-4-one]
> 1000 nM | CN(c1cc(-c2ccc(Cl)cc2)nc(-c2cccnc2)n1)C1CCNCC1 [Example 167, 6-(4-chlorophenyl)-N-methyl-N-(piperidin-4-yl)-2-(pyridin-3-yl)pyrimidin-4-amine]
> 1000 nM | CN1CCCCC1CCNc1cc(-c2ccc(Cl)cc2)nc(-c2cccnc2)n1 (centres unmarked) [Example 168, 6-(4-chlorophenyl)-N-(2-(1-methylpiperidin-2-yl)ethyl)-2-(pyridin-3-yl)pyrimidin-4-amine]
> 1000 nM | CC(Nc1cc(-c2ccc(Cl)cc2)nc(-c2cccnc2)n1)C1CCN(C)CC1 (centres unmarked) [Example 169, 6-(4-chlorophenyl)-N-(1-(1-methylpiperidin-4-yl)ethyl)-2-(pyridin-3-yl)pyrimidin-4-amine]
10 to 100 nM | COC(=O)CN1CCC(Nc2cc(-c3ccc(Cl)cc3)nc(-c3cccnc3)n2)CC1 [Example 171, methyl 2-(4-((6-(4-chlorophenyl)-2-(pyridin-3-yl)pyrimidin-4-yl)amino)piperidin-1-yl)acetate]
< 10 nM | CC(OC(=O)C(F)(F)F)C1CCN(c2cc(-c3ccc(Cl)cc3)nc(-c3cccnc3)n2)CC1 (centres unmarked) [Example 172, 1-(1-(6-(4-chlorophenyl)-2-(pyridin-3-yl)pyrimidin-4-yl)piperidin-4-yl)ethyl 2,2,2-trifluoroacetate]
100 to 1000 nM | CN1CCCC(Nc2cc(-c3ccc(Cl)cc3)nc(-c3cccnc3)n2)C1 (centres unmarked) [Example 173, 6-(4-chlorophenyl)-N-(1-methylpiperidin-3-yl)-2-(pyridin-3-yl)pyrimidin-4-amine]
100 to 1000 nM | Cn1cc(-c2nc(N[C@@H]3CCC[C@@H]3O)cc(-c3ccc(Cl)cc3)n2)cn1 [Example 174, (1S,2R)-2-((6-(4-chlorophenyl)-2-(1-methyl-1H-pyrazol-4-yl)pyrimidin-4-yl)amino)cyclopentan-1-ol]
10 to 100 nM | Cn1cc(-c2nc(-c3ccc(Cl)cc3)cc(N3CCC[C@@H](O)C3)n2)cn1 [Example 175, (R)-1-(6-(4-chlorophenyl)-2-(1-methyl-1H-pyrazol-4-yl)pyrimidin-4-yl)piperidin-3-ol]
> 1000 nM | Cn1cc(-c2nc(-c3ccc(Cl)cc3)cc(N3CCC(O)CC3)n2)cn1 [Example 176, 1-(6-(4-chlorophenyl)-2-(1-methyl-1H-pyrazol-4-yl)pyrimidin-4-yl)piperidin-4-ol]
10 to 100 nM | Cn1cc(-c2nc(-c3ccc(Cl)cc3)cc(N3CCC(CO)CC3)n2)cn1 [Example 177, (1-(6-(4-chlorophenyl)-2-(1-methyl-1H-pyrazol-4-yl)pyrimidin-4-yl)piperidin-4-yl)methanol]
100 to 1000 nM | Cn1cc(-c2nc(-c3ccc(Cl)cc3)cc(N3CCC(CCO)CC3)n2)cn1 [Example 178, 2-(1-(6-(4-chlorophenyl)-2-(1-methyl-1H-pyrazol-4-yl)pyrimidin-4-yl)piperidin-4-yl)ethan-1-ol]
100 to 1000 nM | Cn1cc(-c2nc(-c3ccc(Cl)cc3)cc(N3CCC(CCCO)CC3)n2)cn1 [Example 179, 3-(1-(6-(4-chlorophenyl)-2-(1-methyl-1H-pyrazol-4-yl)pyrimidin-4-yl)piperidin-4-yl)propan-1-ol]
> 1000 nM | CC1CCN(c2cc(-c3ccc(Cl)cc3)nc(-c3cnn(C)c3)n2)CC1 [Example 180, 4-(4-chlorophenyl)-2-(1-methyl-1H-pyrazol-4-yl)-6-(4-methylpiperidin-1-yl)pyrimidine]
100 to 1000 nM | CN1CCN(c2cc(-c3ccc(Cl)cc3)nc(-c3cnn(C)c3)n2)CC1 [Example 181, 4-(4-chlorophenyl)-2-(1-methyl-1H-pyrazol-4-yl)-6-(4-methylpiperazin-1-yl)pyrimidine]
